Results as given in US7115728B1, “Human peroxisome proliferator activated receptor γ” (Ligand Pharmaceutical Incorporated, priority 1995, dated 2006).
Blank lines part the entries; values can stand above or below the molecule they belong to.

Columns and labels:
hPPARγ [1] = target: T1, hPPARγ (Homo sapiens, UniProt P37231); assay: Co-transfection assay, transactivation of hPPARγ (pCMVhPPARγ) in CV-1 cells, FIG. 1; conditions: CV-1 cells transfected with 0.1 μg pCMVhPPARγ; compared with empty vector pBKCMV (no receptor)
T1 sequence (P37231 with tags, fused parts or gaps limits assumed): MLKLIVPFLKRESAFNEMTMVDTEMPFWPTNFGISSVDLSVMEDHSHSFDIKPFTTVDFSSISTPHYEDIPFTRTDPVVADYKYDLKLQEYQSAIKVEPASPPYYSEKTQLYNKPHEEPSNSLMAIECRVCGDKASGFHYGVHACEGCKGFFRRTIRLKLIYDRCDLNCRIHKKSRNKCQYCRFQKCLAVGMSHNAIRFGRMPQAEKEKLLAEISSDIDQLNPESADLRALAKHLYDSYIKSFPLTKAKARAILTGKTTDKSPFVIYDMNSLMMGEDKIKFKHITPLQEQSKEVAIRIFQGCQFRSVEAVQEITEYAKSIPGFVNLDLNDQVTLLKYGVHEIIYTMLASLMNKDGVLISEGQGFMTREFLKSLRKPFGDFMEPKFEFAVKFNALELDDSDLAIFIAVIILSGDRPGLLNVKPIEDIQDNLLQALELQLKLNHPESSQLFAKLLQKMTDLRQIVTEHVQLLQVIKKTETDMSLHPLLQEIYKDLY
Protocol: CV-1 cells were transfected with 0.1 μg pCMVhPPARγ or the empty expression vector pBKCMV (no receptor).
CV-1 or HepG2 cells were grown in Dulbecco's modified Eagle's medium (DMEM) supplemented with 10% (v/v) fetal bovine serum (Hyclone), 2 mM L-glutamine, and 55 μg/ml gentamicin (BioWhittaker). Cells were plated at 2×10^5 cells per well for HepG2 in 12 well cell culture dishes (Costar). The media was replaced with fresh media 20 hours later.
After 14 hours the cells were washed with 1×PBS and fresh media added (DMEM with 10% charcoal stripped fetal bovine serum (Hyclone) plus the above supplements). Ligands or PPAR activators were added to the final concentrations indicated. Control cells were treated with vehicle.
After another 24 hours the cells were harvested and the luciferase and β-galactosidase activities quantified on a Dynatech ML 1000 luminometer and a Beckman Biomek 1000 workstation respectively. The normalized response is the luciferase activity of the extract divided by the β-galactosidase activity of the same. Each data point represents the mean of three transfections. Error bars represent the standard deviation from the mean.
Control cells received an equivalent amount of vehicle. In the repression assays repressor plasmid dosage was kept constant by adding the appropriate amount of the empty expression vector pBKCMV.

mPPARγ = conditions: Tontonoz et al. 1994; Kliewer et al.; cited from earlier work
[2] = test system: CV-1 cells transfected with the empty expression vector pBKCMV (no receptor); assay: Co-transfection assay, control CV-1 cells transfected with empty expression vector, FIG. 4; type: cell-based, monkey; conditions: CV-1 cells transfected with the empty expression vector (no receptor); 1 μM compound
Protocol: (§1) CV-1 cells were transfected with pCMVhPPARγ3 or the empty expression vector pBKCMV (no receptor). Thiazolidinedione was added.
(§2) Biochem. Molec. Biol. 41, 733–738).
(§3) Control cells were treated with vehicle.
(§4) Each data point represents the mean of three transfections. Error bars represent the standard deviation from the mean.
(§5) A cotransfection assay was performed in CV-1 cells with the pPREA3-tk-LUC and 1 μM thiazolidinedione (BRL 49,653, see Ibrahimi et al., Molecular Pharmacology 46:1070–1076, 1994). Thiazolidinedione is an insulin sensitizer and has potential use in the treatment of non-insulin dependant diabetes mellitus.

hPPARγ [3] = target: T2, hPPARγ (Homo sapiens, UniProt P37231); assay: Co-transfection assay with pCMVhPPARγ3 and pPREA3-tk-LUC reporter in CV-1 cells, FIG. 4; type: cell-based; conditions: CV-1 cells transfected with pCMVhPPARγ3; pPREA3-tk-LUC; 1 μM compound; read-out: fold induction of reporter gene
T2 construct: expressed in transfected cells; host or cells: CV-1 cells
T2 sequence (P37231 31-505): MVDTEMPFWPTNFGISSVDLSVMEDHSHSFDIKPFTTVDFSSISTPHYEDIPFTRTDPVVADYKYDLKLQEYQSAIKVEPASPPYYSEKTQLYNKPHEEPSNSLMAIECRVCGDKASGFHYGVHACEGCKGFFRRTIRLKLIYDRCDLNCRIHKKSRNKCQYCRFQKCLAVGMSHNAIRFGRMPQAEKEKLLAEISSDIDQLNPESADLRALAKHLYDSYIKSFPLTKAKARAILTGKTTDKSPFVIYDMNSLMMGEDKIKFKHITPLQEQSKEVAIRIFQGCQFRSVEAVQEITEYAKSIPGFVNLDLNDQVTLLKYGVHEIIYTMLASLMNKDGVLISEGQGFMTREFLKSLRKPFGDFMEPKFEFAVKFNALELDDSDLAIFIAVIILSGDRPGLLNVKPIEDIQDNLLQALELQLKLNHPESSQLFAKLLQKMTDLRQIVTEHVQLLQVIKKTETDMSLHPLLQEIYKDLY
Protocol: as §1, §2, §3, §4
To increase the level of hPPARγ protein synthesis, Applicant deleted a region containing the two inframe upstream ATG codons since these are absent in mouse PPARγ. pCMVhPPARγ was digested with NcoI, blunt ended with Klenow, and digested again with KpnI. The insert was isolated and directionally cloned into pBKCMV plasmid, which was digested with XbaI (blunt ended with Klenow) and KpnI. In the ensuing plasmid pCMVhPPARγ3, the translation initiation codon is within the context of a stronger Kozak translation initiation sequence.
as §5

hPPARα = target: T3, hPPARα (Homo sapiens, UniProt Q07869); assay: Co-transfection assay, activation of hPPARα, FIG. 2; type: cell-based; conditions: CV-1 cells transfected with 0.1 μg pCMVhPPARα; gemfibrozil final concentration printed as 100 M
T3 construct: expressed in transfected cells; host or cells: CV-1 cells
T3 sequence (Q07869 1-468): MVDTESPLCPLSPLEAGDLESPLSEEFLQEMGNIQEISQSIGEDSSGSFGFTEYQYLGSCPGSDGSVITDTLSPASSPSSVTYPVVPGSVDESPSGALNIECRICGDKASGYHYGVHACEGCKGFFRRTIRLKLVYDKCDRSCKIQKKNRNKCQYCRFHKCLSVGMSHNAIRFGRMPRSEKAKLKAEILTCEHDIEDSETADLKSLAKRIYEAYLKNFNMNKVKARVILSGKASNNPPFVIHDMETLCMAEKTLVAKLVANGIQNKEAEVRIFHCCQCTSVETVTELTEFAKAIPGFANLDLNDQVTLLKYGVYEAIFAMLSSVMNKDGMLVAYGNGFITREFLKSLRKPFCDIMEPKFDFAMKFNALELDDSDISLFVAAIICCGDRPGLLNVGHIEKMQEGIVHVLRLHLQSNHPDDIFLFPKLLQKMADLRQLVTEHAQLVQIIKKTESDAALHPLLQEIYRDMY
Protocol: CV-1 cells were transfected with 0.1 μg of pCMVhPPARα and 0.1 or 0.4 μg of pCMVhNUC1 or pCMVhPPARγ. Gemfibrozil was added to a final concentration of 100 µM.
as §2
Where indicated, 0–0.5 μg of hNUC1B plasmid or hPPARγ plasmid (repressor) was added. Repressor plasmid dosage was kept constant by the addition of appropriate amounts of the empty expression vector pBKCMV. Total amount of DNA was kept at 20 μg by the addition of pGEM DNA (Promega).
as §3, §4
hPPARα is activated in the presence of gemfibrozil. When hNUC1 or hPPARγ is contransfected into cells along with hPPARα, a dose dependant repression was observed (FIG. 2). Repression of hPPARα with hNUC1 is stronger than with hPPARγ. No repression with 0.1 μg of hPPARγ was observed while repression with 0.1 μg of hNUC1 was clearly seen. However, repression with 0.4 μg of hPPARγ was observed.

Compound: CC1=C(/C=C/C(C)=C\C=C\C(C)=C\C(=O)O)C(C)(C)CCC1 [9-cis retinoic acid]
activation of hPPARγ (fold induction of reporter gene versus control cells) (hPPARγ [1]): same fold activation as in control transfections

Compound: CCCCCC#CCC#CCC#CCC#CCCCC(=O)O [ETYA, 5,8,11,14-eicosatetraynoic acid]
transcriptional activation of mPPARγ (mPPARγ): transcriptionally activated

Compound: CCCc1c(OCCCCc2nnn[nH]2)ccc(C(C)=O)c1O [LY-171,883]
transcriptional activation of mPPARγ (mPPARγ): transcriptionally activated

fold induction at 1 µM (hPPARγ [3]): 25
Compound: O=C1CSC(=O)N1 [Thiazolidinedione]
fold activation of reporter gene [2]: 7 fold

activation of hPPARα (hPPARα): activated
Compound: Cc1ccc(C)c(OCCCC(C)(C)C(=O)O)c1 [gemfibrozil]
